The structures appear in SMILES notation. pKd: −log10 of the molar value. Active and inactive are the calls of the source. Rule as the data show it, for most assays here: actives have a measured Kd and inactives only a lower limit.

Test [1] deals with BMP-2-inducible protein kinase (Homo sapiens, UniProt Q9NSY1).
Test [2] deals with Cyclin-dependent kinase 13 (Homo sapiens, UniProt Q14004).
Test [3] deals with T1, Serine/threonine-protein kinase Chk1 (Homo sapiens, UniProt O14757).
T1 sequence (O14757 whole entry): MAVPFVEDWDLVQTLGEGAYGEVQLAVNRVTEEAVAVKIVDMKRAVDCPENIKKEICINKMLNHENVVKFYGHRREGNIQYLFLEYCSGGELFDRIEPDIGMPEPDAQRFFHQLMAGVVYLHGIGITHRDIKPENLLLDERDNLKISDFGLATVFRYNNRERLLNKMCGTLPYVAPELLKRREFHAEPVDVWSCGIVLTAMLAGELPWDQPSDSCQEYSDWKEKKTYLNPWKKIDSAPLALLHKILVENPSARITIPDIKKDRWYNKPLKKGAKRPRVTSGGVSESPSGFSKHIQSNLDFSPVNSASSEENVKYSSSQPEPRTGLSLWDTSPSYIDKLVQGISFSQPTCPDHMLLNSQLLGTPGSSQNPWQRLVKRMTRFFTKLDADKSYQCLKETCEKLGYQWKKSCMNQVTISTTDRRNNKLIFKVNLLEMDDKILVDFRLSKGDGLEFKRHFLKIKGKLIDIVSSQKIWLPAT

In test [4] the target is Tyrosine-protein kinase CSK (Homo sapiens, UniProt P41240).
Tyrosine-protein kinase CSK, sequence (P41240 whole entry): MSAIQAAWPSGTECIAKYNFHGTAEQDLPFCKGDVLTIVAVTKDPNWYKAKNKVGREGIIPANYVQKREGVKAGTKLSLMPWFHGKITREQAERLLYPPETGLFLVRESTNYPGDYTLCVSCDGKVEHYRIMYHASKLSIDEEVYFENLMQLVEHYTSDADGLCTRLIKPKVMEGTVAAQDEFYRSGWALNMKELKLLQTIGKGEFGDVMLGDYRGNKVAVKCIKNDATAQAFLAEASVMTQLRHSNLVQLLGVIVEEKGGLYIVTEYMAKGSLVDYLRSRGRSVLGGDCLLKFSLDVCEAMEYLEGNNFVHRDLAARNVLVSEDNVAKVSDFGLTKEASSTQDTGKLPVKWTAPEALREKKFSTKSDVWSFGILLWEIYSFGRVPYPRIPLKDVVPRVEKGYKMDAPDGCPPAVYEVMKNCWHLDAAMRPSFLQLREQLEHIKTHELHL
A further test addresses Ephrin type-A receptor 7 (Homo sapiens, UniProt Q15375).
For a further test, the target named is T2, Ephrin type-B receptor 2 (Homo sapiens, UniProt P29323).
T2 sequence (P29323 whole entry): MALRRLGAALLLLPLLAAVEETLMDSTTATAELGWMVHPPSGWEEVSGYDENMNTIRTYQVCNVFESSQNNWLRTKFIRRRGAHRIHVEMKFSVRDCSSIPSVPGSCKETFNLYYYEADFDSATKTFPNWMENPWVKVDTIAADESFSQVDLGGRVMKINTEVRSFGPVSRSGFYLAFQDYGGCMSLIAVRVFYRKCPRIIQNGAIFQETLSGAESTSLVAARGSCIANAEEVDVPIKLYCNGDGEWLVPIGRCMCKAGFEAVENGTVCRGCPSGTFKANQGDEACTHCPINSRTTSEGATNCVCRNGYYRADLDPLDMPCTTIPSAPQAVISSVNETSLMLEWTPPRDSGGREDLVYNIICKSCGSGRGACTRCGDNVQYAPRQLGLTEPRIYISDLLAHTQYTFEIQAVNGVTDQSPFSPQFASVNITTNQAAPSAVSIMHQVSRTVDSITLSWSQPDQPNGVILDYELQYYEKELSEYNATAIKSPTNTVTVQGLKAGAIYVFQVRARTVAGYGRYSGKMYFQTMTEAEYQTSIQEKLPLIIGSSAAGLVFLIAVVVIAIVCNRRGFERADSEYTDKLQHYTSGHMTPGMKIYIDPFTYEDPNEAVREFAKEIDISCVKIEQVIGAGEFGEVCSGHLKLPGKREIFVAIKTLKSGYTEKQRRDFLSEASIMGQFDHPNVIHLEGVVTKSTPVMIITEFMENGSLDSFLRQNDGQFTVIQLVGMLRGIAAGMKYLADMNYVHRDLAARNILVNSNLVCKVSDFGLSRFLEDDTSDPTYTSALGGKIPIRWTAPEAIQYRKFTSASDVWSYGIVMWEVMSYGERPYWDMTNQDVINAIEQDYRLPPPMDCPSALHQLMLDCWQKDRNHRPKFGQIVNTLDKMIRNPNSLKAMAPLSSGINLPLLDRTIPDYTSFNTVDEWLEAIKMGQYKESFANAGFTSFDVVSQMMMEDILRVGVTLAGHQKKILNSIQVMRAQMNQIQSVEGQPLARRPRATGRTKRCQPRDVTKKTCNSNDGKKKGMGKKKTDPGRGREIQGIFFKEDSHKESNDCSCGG

Test [5] concerns the target Tyrosine-protein kinase Fyn (Homo sapiens, UniProt P06241).
For test [6], the target named is Dual specificity mitogen-activated protein kinase kinase 2 (Homo sapiens, UniProt P36507).
In test [7] the target is Mitogen-activated protein kinase 11 (Homo sapiens, UniProt Q15759).
In test [8] the target is cAMP-dependent protein kinase catalytic subunit beta (Homo sapiens, UniProt P22694).
Test [9] deals with cAMP-dependent protein kinase type II-alpha regulatory subunit (Homo sapiens, UniProt P13861).
Test [10] deals with Protein kinase C delta type (Homo sapiens, UniProt Q05655).
Test [11] deals with GTP-binding nuclear protein Ran (Homo sapiens, UniProt P62826).
In test [12] the target is Receptor-interacting serine/threonine-protein kinase 2 (Homo sapiens, UniProt O43353).
Receptor-interacting serine/threonine-protein kinase 2, sequence (O43353 whole entry): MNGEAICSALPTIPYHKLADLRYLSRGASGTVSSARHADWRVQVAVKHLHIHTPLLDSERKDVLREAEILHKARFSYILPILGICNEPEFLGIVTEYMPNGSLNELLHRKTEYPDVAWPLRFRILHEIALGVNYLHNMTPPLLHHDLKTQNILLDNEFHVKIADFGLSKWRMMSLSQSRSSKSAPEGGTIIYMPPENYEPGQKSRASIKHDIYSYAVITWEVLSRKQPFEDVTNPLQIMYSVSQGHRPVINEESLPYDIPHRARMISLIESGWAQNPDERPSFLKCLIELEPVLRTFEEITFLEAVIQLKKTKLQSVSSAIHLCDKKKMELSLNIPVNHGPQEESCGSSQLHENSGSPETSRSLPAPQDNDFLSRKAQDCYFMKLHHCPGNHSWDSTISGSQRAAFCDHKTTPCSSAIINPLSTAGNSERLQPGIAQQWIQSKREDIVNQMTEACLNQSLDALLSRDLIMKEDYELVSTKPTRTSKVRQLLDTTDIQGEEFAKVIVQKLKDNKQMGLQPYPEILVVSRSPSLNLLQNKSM
In test [13] the target is T3, STE20-related kinase adapter protein alpha (Homo sapiens, UniProt Q7RTN6).
T3 sequence (Q7RTN6 whole entry): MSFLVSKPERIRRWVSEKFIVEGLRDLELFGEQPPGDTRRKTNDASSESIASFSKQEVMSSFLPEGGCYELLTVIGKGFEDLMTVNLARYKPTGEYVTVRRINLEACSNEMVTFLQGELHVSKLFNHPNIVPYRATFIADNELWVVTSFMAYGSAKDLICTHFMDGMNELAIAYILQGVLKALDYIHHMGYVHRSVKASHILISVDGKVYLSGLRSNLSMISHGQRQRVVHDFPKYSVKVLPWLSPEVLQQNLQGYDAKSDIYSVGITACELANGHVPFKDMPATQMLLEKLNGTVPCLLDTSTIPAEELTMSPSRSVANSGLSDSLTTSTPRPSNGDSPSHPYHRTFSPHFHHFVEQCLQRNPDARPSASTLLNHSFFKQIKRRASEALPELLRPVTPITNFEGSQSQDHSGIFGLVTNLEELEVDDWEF

Test [14] concerns the target Non-receptor tyrosine-protein kinase TYK2 (Homo sapiens, UniProt P29597).
Test [15] addresses Bone morphogenetic protein receptor type-1A (Homo sapiens, UniProt P36894).
The target in test [16] is Bone morphogenetic protein receptor type-1B (Homo sapiens, UniProt O00238).
Bone morphogenetic protein receptor type-1B, sequence (O00238 whole entry): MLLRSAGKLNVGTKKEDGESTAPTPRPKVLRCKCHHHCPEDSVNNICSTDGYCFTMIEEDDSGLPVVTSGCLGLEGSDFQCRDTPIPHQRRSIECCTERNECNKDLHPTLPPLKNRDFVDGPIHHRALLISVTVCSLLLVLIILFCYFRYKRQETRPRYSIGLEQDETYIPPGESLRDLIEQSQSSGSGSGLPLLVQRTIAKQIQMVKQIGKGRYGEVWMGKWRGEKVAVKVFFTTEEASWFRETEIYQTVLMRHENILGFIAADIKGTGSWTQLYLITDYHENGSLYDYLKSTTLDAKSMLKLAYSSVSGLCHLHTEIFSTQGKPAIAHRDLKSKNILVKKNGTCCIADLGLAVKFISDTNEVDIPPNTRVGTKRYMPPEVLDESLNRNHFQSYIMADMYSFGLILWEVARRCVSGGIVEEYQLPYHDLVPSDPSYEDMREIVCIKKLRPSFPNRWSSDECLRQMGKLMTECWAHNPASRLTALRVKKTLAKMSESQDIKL
The target in test [17] is Serine/threonine-protein kinase MRCK gamma (Homo sapiens, UniProt Q6DT37).
Serine/threonine-protein kinase MRCK gamma, sequence (Q6DT37 whole entry): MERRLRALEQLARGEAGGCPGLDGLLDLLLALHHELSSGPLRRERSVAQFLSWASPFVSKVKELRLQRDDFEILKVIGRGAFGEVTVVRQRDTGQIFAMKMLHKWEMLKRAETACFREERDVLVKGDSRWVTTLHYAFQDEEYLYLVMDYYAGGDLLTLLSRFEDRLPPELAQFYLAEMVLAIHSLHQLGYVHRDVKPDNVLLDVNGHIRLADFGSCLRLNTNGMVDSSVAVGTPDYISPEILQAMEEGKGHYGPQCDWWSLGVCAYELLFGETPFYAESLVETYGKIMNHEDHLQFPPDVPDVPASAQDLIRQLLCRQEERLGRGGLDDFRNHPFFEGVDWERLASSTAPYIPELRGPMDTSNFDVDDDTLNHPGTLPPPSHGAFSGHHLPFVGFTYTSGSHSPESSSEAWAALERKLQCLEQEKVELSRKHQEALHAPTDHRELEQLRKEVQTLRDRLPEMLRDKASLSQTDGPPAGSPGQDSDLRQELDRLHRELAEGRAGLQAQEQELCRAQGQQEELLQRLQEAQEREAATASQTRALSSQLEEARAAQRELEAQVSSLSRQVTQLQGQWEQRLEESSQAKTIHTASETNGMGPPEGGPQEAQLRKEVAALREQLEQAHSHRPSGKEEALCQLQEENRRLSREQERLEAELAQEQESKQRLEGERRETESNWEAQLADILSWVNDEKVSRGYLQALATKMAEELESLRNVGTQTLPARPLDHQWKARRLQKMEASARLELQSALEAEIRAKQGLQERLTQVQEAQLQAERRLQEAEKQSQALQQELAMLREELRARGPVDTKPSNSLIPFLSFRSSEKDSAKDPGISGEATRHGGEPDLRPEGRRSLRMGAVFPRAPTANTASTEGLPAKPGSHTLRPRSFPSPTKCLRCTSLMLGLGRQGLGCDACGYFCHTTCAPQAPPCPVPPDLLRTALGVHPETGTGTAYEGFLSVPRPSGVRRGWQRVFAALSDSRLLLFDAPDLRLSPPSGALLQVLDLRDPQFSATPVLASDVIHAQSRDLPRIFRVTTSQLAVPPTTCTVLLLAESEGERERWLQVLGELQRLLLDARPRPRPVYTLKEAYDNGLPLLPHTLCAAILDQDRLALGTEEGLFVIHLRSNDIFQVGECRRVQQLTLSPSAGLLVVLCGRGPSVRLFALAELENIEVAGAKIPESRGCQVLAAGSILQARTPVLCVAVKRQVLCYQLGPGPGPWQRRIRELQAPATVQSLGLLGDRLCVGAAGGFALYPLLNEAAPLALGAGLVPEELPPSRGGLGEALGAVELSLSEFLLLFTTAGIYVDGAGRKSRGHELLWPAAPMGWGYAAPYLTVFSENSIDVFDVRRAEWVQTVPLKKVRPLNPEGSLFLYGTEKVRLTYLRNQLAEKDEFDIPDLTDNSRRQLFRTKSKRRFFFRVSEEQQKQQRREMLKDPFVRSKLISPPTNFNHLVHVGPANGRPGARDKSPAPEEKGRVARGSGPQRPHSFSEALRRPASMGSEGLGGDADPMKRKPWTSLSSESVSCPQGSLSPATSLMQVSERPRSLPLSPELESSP
Also: in the data inactive means no Kd found up to 30 µM.

Bone morphogenetic protein receptor type-1A, sequence (P36894 whole entry): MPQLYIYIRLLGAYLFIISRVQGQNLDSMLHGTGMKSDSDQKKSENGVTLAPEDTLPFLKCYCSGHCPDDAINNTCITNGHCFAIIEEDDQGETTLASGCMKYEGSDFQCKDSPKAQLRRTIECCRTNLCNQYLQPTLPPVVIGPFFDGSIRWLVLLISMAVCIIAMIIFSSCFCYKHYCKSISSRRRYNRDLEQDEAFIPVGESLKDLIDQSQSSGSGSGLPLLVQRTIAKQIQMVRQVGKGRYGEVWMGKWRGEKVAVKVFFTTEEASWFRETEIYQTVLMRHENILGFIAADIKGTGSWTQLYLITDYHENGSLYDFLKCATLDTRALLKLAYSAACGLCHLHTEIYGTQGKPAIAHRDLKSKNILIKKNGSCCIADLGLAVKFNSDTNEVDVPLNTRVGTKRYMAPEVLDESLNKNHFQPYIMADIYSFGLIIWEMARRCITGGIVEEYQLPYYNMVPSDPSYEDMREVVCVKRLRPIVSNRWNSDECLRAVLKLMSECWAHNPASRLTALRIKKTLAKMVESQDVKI
BMP-2-inducible protein kinase, sequence (Q9NSY1 whole entry): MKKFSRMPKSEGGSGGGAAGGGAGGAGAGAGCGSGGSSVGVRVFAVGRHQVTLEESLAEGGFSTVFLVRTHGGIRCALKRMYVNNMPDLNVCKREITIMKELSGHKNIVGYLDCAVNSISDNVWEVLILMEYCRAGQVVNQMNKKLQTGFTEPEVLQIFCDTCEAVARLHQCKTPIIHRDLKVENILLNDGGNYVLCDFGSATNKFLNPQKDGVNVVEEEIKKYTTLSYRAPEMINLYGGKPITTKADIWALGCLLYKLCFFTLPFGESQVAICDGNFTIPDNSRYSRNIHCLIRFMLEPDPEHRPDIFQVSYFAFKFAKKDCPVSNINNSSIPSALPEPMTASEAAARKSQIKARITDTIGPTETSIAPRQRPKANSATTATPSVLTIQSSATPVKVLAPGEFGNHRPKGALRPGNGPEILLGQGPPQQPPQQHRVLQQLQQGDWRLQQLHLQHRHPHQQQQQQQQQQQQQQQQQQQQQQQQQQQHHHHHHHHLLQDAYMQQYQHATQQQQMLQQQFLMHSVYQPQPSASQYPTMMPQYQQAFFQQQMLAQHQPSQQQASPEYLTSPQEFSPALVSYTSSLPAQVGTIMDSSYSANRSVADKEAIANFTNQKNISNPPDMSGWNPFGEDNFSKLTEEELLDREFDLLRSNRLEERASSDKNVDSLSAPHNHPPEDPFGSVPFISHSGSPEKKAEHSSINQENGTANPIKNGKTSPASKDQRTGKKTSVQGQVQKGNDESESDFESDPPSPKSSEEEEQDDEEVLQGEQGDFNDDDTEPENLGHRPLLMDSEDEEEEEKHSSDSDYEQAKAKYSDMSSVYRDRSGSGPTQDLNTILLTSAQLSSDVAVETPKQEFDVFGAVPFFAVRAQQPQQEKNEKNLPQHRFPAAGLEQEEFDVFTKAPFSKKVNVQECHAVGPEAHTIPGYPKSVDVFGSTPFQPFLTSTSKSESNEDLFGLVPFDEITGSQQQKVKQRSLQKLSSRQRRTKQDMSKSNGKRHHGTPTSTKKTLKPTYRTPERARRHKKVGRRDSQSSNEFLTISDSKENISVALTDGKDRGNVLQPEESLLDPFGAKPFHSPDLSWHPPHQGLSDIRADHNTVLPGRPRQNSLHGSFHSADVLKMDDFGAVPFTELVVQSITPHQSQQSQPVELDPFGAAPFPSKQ

As to `CCc1nc(C(N)=O)c(Nc2ccc(N3CCC(N4CCN(C)CC4)CC3)c(OC)c2)nc1NC1CCOCC1` [GILTERITINIB], the Kd was 0.046 µM (active) in test [1]; > 30 µM (inactive) in test [2]; > 30 µM (inactive) in [3]; > 30 µM (inactive) in [4]; 2.98 µM (active) at Ephrin type-A receptor 7; > 30 µM (inactive) on Ephrin type-B receptor 2. The Kd is > 30 µM (inactive) in test [5]; 0.502 µM (active) in test [6]; > 30 µM (inactive) in test [7]; > 30 µM (inactive) in [8]; > 30 µM (inactive) in test [9]; > 30 µM (inactive) in [10]. In addition, the equilibrium dissociation constant (Kd) in test [12] was 0.482 µM (active); in test [13] it was > 30 µM (inactive); in [14], > 30 µM (inactive). The same molecule gave a pKd in [11] of 6.12.

As to `CCOc1ccn(-c2ccc(F)cc2)c(=O)c1C(=O)Nc1ccc(Oc2ccnc(N)c2Cl)c(F)c1` [BMS-777607], the Kd in [1], in test [15], in [16], in [2], in [3] and in test [4] was > 30 µM (inactive) each time. The Kd (on Ephrin type-A receptor 7; on Ephrin type-B receptor 2; in test [5]; in test [6]; in [7]; in test [8]) was > 30 µM (inactive) each time. Further, the Kd in test [9], in [10], in test [11] and in test [12] was > 30 µM (inactive) throughout.

`NC(=O)c1ccc(N(C(N)=O)c2c(F)cccc2F)nc1-c1ccc(F)cc1F` [VX-702]: the Kd in [1], in test [15], in test [16], in [2], in test [3] and in test [4] was > 30 µM (inactive) throughout. The Kd (on Ephrin type-A receptor 7; on Ephrin type-B receptor 2; in test [5]; in test [6]; in test [8]; in [9]) was > 30 µM (inactive) throughout. The Kd in test [10], in [11], in [12], in [13] and in test [14] was > 30 µM (inactive) throughout.

As to `Cn1cc(-c2[nH]c3cc(NC(=O)[C@H](N)C4CCCCC4)cc4c3c2C=NNC4=O)cn1`, the dissociation constant (Kd) in test [1] was 0.006 µM (active); in test [15], 0.814 µM (active); in [16], 2.01 µM (active); in test [17], > 30 µM (inactive); in test [2] it was > 30 µM (inactive); in test [4] it was > 30 µM (inactive). The Kd on Ephrin type-A receptor 7 is > 30 µM (inactive); on Ephrin type-B receptor 2, > 30 µM (inactive); in [5], 1.34 µM (active); in test [6] it was > 30 µM (inactive); in test [7] it was > 30 µM (inactive); in test [8], > 30 µM (inactive). For the same molecule, the Kd in test [9], in test [10], in test [11], in test [12], in test [13] and in test [14] was > 30 µM (inactive) throughout.

For the molecule `CC(C)CC(=O)Nc1[nH]nc2c1CN(C(=O)C1CCN(C)CC1)C2(C)C` [PHA-793887], the Kd is > 30 µM (inactive) in test [1]; > 30 µM (inactive) in test [15]; > 30 µM (inactive) in test [16]; > 30 µM (inactive) in [17]; 3.58 µM (active) in [2]; > 30 µM (inactive) in test [3]. Moreover, the Kd (in [4]; at Ephrin type-B receptor 2; in [5]; in test [6]; in test [7]; in test [8]) was > 30 µM (inactive) in each case. For the same molecule, the Kd in test [9], in test [10], in test [11], in test [12], in test [13] and in test [14] was > 30 µM (inactive) throughout.

In the case of `C[C@]1(O)C[C@@H](c2nc(-c3ccc4ccc(-c5ccccc5)nc4c3)c3c(N)nccn32)C1` [LINSITINIB], the Kd in test [1], in test [15], in test [16], in [17], in test [2] and in [4] was > 30 µM (inactive) throughout. Moreover, the Kd on Ephrin type-A receptor 7 is > 30 µM (inactive); on Ephrin type-B receptor 2 it was > 30 µM (inactive); in [6] it was 1.14 µM (active); in test [8] it was > 30 µM (inactive); in test [9], > 30 µM (inactive); in [11], > 30 µM (inactive). For the same molecule, the Kd in [12] was 1.36 µM (active); in test [13] it was > 30 µM (inactive). In addition, in test [7], the negative-log Kd (pKd) is 8.00.

As to `CC[C@@](C)(Nc1ccnc(-c2c[nH]c3ncccc23)n1)C(=O)NCC(F)(F)F` [DECERNOTINIB], the Kd in [1] is 5.75 µM (active); in test [15], > 30 µM (inactive); in [16], > 30 µM (inactive); in test [2] it was > 30 µM (inactive); in test [3], > 30 µM (inactive); in test [4], > 30 µM (inactive). For the same molecule, the Kd (at Ephrin type-A receptor 7; at Ephrin type-B receptor 2; in [5]; in test [6]; in [7]; in test [8]) was > 30 µM (inactive) in each case. The Kd was 0.067 µM (active) in [10], > 30 µM (inactive) in test [11], > 30 µM (inactive) in [12] and > 30 µM (inactive) in test [13].

As a reminder, the Kd is the constant that tells how readily two partners part at equilibrium. One may read the pKd as the negative decadic logarithm of the Kd, by convention in mol/L. Low readings indicate a high Kd, high ones a low Kd.

The values are drawn from ChEMBL document CHEMBL3991601, “The target landscape of clinical kinase drugs” (Science, 2017).
